Data on eleven compounds can be found in patent publication US4544660A, “Pharmaceutically active tropanes” (Beecham Group p.l.c., priority 1978, dated 1985).

Format in all cases: in vivo
In assay [1] the test system is intragastric pressure. In words: Increase in intragastric pressure in the rat. As to conditions: s.c., 40 minute period after administration; for minimal effective dose: sc, 40 min, read-out: III(a) Increase in Intragastric Pressure Dose (minimum dose for activity). On the set-up: III(a) Increase in Intragastric Pressure Dose (minimum dose for activity): unit not given here. On the procedure: (a) Increase in intragastric pressure in the rat
Intragastric pressure changes were recorded from previously starved conscious but restrained rats using a saline filled catheter inserted into the lumen of the stomach via a permanent gastric fistula. The catheter was connected to a physiological pressure transducer and pressure changes recorded on a hot wire pen recorder. In each animal a pre-dose period of 40 minutes was allowed to obtain a measure of spontaneous activity. An index of activity was obtained by measuring the average height of pressure waves during 10 minute periods. Values for 4 such periods were obtained during assessment of spontaneous activity and for the 40 minute period after the subcutaneous administration of the compounds. Students `t` test was applied to the difference in average values obtained for spontaneous and post-compound activity.

Assay [2] relates to vomiting response. In words: Anti-emetic activity in the dog (apomorphine induced vomiting). As to conditions: Canis lupus familiaris, s.c., 30 min before apomorphine HCl 0.1 mg/kg s.c., complete inhibition, read-out: II Anti-Emetic Activity Dose, Complete Inhibition. On the procedure:
II. Anti-emetic activity in the dog
Compounds were administered subcutaneously 30 minutes prior to administration of a standard dose of apomorphine HCl (0.1 mg/kg subcutaneously) and the vomiting response compared to that obtained when the same animals were dosed with apomorphine HCl and vehicle only.

Assay [3] deals with Dopamine Receptor. In words: Inhibition of apomorphine induced climbing in the mouse. The settings on record: p.o., apomorphine 1 mg/kg s.c., complete inhibition. On the procedure:
(§1) I. Dopamine Receptor Blocking Activity in the Central Nervous System
(b) Inhibition of apomorphine induced climbing in the mouse
The test is based on that described by Protais, P., Constantin, J. and Schwartz J.C. (1976), Psychopharmacology, 50, 1-6.
Apomorphine 1 mg/kg s.c. induces mice to climb the wall of a wire cage (inverted food hopper--11×7.5×18 cm high). Mice acclimatised in their home cages in groups of 5 are placed under the hoppers immediately after the injection of apomorphine 1 mg/kg s.c. At 10,20 and 30 minutes after injection climbing behaviour is scored. The mice are observed for 30 seconds and scored according to the position they spend the majority of time in, score 0--four paws on floor of cage; score 1--fore paws only on walls; score 2--all paws on wall of cage. The scores at all 3 times and for each mouse are summed and mice drug treated orally compared to mice receiving apomorphine only. A saline only treated group is also included and any score, generally <5% of maximum taken into account.

Assay [4] concerns Dopamine Receptor. The experiment in a line: Inhibition of apomorphine induced stereotype behaviour in the rat. As to conditions: s.c., apomorphine induced, complete inhibition, IA(x) = inactive at dose in brackets.
Text: as §1
(a) Inhibition of apomorphine induced stereotype behaviour in the rat
(method of Ernst (1967), Psychopharmacologia (Berl.) 10 316-323).

`COc1cc(N)c(Cl)cc1C(=O)N[C@@H]1C[C@H]2CC[C@@H](C1)N2CC(C)C` [Compound 28, 4-amino-5-chloro-2-methoxy-N-(3'β-[8'-isobutyl-8'-azabicyclo-[3.2.1]-octyl])-benzamide]: the minimal effective dose in assay [1] is 5 mg/kg. Further, the ED100 in assay [2] is 0.2 mg/kg.
Consider `COc1ccc(CN2[C@@H]3CC[C@H]2C[C@H](NC(=O)c2cc(Cl)c(N)cc2OC)C3)cc1` [Compound 14, 4amino-5-chloro-2-methoxy-N-(3β-[8'[4"methoxybenzyl]-8'-azabicyclo[3.2.1]octyl])-benzamide], for which the “I(b) Anti-Climbing Activity Dose, Complete Inhibition” value in assay [3] stood at 10 mg/kg. Also, in assay [2], the ED100 came out at 0.1 mg/kg.
`COc1cc(N)c(Cl)cc1C(=O)N[C@@H]1C[C@H]2CC[C@@H](C1)N2Cc1ccc(Cl)cc1` [Compound 16, 4amino-5-chloro-2-methoxy-N-(3β-[8'[4"chlorobenzyl]-8'-azabicyclo[3.2.1]octyl])-benzamide]: the “I(b) Anti-Climbing Activity Dose, Complete Inhibition” value in assay [3] was determined as 2 mg/kg.
With `COc1ccc(S(N)(=O)=O)cc1C(=O)N[C@@H]1C[C@H]2CC[C@@H](C1)N2Cc1ccccc1` [Compound 8, 5-Sulphamoyl-2-methoxy-N-(3'β-[8'-benzyl]-8'-azabicyclo-[3.2.1]-octyl)-benzamide], the “I(b) Anti-Climbing Activity Dose, Complete Inhibition” value in assay [3] is “IA (inactive at 10 mg/Kg p.o.)”. The “III(a) Increase in Intragastric Pressure Dose (minimum dose for activity)” value in assay [1] is given as “IA(5)”. Besides, the ED100 in assay [2] is 0.1 mg/kg.
Turning to `COc1cc(N)c(Cl)cc1C(=O)N[C@H]1C[C@H]2CCC[C@@H](C1)N2Cc1ccccc1` [Compound 11, 4-amino-5-chloro-2-methoxy-N-(3'α-[9'-benzyl-9'-azabicyclo-[3,3,1]-nonyl])-benzamide], the “I(a) Dose Inhibiting Stereotype Behaviour (dose for complete inhibition)” value in assay [4] is listed as “IA(50)”. Moreover, in assay [3], the “I(b) Anti-Climbing Activity Dose, Complete Inhibition” value was “IA (inactive at 10 mg/Kg p.o.)”. In addition, the minimal effective dose in assay [1] came out at 1 mg/kg.
Consider `COc1ccccc1C(=O)N[C@@H]1C[C@H]2CC[C@@H](C1)N2Cc1ccccc1` [Compound 9, 2-Methoxy-N-(3'β-[8'-benzyl-8'-azabicyclo-[3.2.1]-octyl])-benzamide], for which the “I(b) Anti-Climbing Activity Dose, Complete Inhibition” value in assay [3] is 10 mg/kg. Further, the ED100 in assay [2] is 0.1 mg/kg.
Consider `C=CCN1[C@@H]2CC[C@H]1C[C@H](NC(=O)c1cc(Cl)c(N)cc1OC)C2` [Compound 32, 4-amino-5-chloro-2-methoxy-N-(3'β-[8'-ally-8-azabicyclo[3.2.1]octyl])benzamide], for which the ED100 in assay [2] stood at 0.2 mg/kg.
For the compound `CCOc1ccc(CN2[C@@H]3CC[C@H]2C[C@H](NC(=O)c2cc(Cl)c(N)cc2OC)C3)cc1` [Compound 15, 4amino-5-chloro-2-methoxy-N-(3β-[8'[4"ethoxybenzyl]-8'-azabicyclo[3.2.1]octyl])-benzamide], the “I(b) Anti-Climbing Activity Dose, Complete Inhibition” value in assay [3] is given as 10 mg/kg. For the same compound, the ED100 in assay [2] was 0.1 mg/kg.
`COc1cc(N)c(Cl)cc1C(=O)N[C@@H]1C[C@H]2CC[C@@H](C1)[N+]2(C)Cc1ccccc1` (stereo partly drawn) [Compound 10, 4-Amino-5-chloro-2-methoxy-N-(3'β-[8'-benzyl]-8'-azabicyclo[3.2.1]octyl)-benzamide methobromide]: the “I(b) Anti-Climbing Activity Dose, Complete Inhibition” value in assay [3] is “IA(2)”. In addition, in assay [1], the minimal effective dose was 0.25 mg/kg.
Turning to `COc1cc(N)c(Cl)cc1C(=O)N[C@@H]1C[C@H]2CC[C@@H](C1)N2C1CCCCC1` [Compound 31, 4-amino-5-chloro-2-methoxy-N-(3'β-[8'-cyclohexyl-8-azabicyclo[3.2.1]octyl])benzamide], the “I(b) Anti-Climbing Activity Dose, Complete Inhibition” value in assay [3] was “IA (inactive at 10 mg/Kg p.o.)”. The ED100 in assay [2] worked out at 0.25 mg/kg.
As to `COc1cc(N)c(Cl)cc1C(=O)N[C@H]1C[C@H]2CC[C@@H](C1)N2Cc1ccccc1` [Compound 3, 4-amino-5-chloro-2-methoxy-N-(3',α-[8'-benzyl]nortropyl)benzamide], in assay [4], the “I(a) Dose Inhibiting Stereotype Behaviour (dose for complete inhibition)” value is listed as 50 mg/kg. Besides, the ED100 in assay [2] amounted to 0.05 mg/kg.
